Source: patent US20210388028A1, “GLYCOPEPTIDE DERIVATIVE COMPOUNDS AND USES THEREOF” (INSMED INCORPORATED, priority 2018, published 2021)

What was measured:
[1] = system: gram positive pathogens including S. Aureus methicillin-susceptible and resistant isolates; test: antibacterial activity against gram positive pathogens; format: cell-based
[2] = design: species or system Sprague Dawley rats; details: rat, in vivo, inhaled or intranasal, 10 mg/kg
Experimental: 120 h single dose in vivo PK experiments of nebulized inhaled compounds were performed in healthy male Sprague Dawley rats at target body-weight doses of 10 mg/kg (RV40) or 1.5 mg/kg (TLV, RV104, RV106), using a 12-port nose-only chamber (CH Technologies, Westwood, N.J., USA) equipped with an Aerogen Aeroneb Pro mesh nebulizer. The aerosol was provided to chamber at a flow rate of 6 L/min. Lungs were collected, and drug concentrations measured by HPLC-MS/MS.
Chemical modification of the compound to include an additional moiety at R=x was accomplished to improve reduce the compound's predictive hydrophobicity.

CCCCCCCCCCNCCN[C@@]1(C)C[C@H](O[C@H]2[C@H](Oc3c4cc5cc3Oc3ccc(cc3Cl)[C@@H](O)[C@@H](NC(=O)[C@@H](CC(C)C)NC)C(=O)N[C@@H](CC(N)=O)C(=O)N[C@H]5C(=O)N[C@H]3C(=O)N[C@H](C(=O)N[C@H](C(=O)O)c5cc(O)cc(O)c5-c5cc3ccc5O)[C@H](O)c3ccc(c(Cl)c3)O4)O[C@H](CO)[C@@H](O)[C@@H]2O)O[C@@H](C)[C@H]1O [RV40]
antibacterial activity [1]: potent antibacterial activity
half-life in lung tissue (t1/2) [2]: 12.5 days
